Active and inactive are the calls of the source. The rule behind the calls is not given here.

For data set [1], the system named is Calf thymus DNA. Description: Binding affinity to calf thymus double stranded DNA at 10 uM measured after 5 mins by flourescence spectroscopy method. The conditions noted are these: Bos taurus.
Data set [2] in a line: Selectivity index, ratio of IC50 for human TERT-RPE1 cells to IC50 for human NCI-H460 cells. Type of data set: toxicity. The conditions noted are these: TERT-RPE1 cells and NCI-H460 cells, read-out: Ratio IC50.
In data set [3] the test system is K562. Description: Induction of apoptosis in human K562 cells assessed as necrotic cells at 1.6 uM measured after 24 hrs by Annexin V-APC/PI staining based flow cytometry assay (reference value: 3.9%). The class given is functional.
A short description of data set [4]: Drug uptake in P-gp-positive/doxorubicin-resistant human K562/4 cells. Type of data set: ADME.
Data set [5] concerns K562. The experiment in a line: Induction of oxidative stress in human K562 cells assessed as increase in intracellular ROS generation at 1.6 uM measured after 40 mins by Deep Red dye based flow cytometry method. The class given is functional, cell-based. A general note: In flow cytometry, cells or beads pass a laser one at a time.
The subject of data set [6] is K562. The experiment in a line: Induction of apoptosis in human K562 cells assessed as necrotic cells at 1.6 uM measured after 48 hrs by Annexin V-APC/PI staining based flow cytometry assay (reference value: 3.9%). Type of data set: functional.
A short description of data set [7]: Selectivity index, ratio of IC50 for human TERT-RPE1 cells to IC50 for human K562 cells. Type of data set: toxicity. As to conditions: TERT-RPE1 cells and K562 cells, read-out: Ratio IC50.
Data set [8] can be described thus: Selectivity index, ratio of IC50 for human TERT-RPE1 cells to IC50 for human HCT-116 cells. The class given is toxicity. The conditions noted are these: TERT-RPE1 cells and HCT-116 cells, read-out: Ratio IC50.
Data set [9] concerns K562. Description: Induction of cell cycle arrest in human K562 cells assessed as accumulation at G2/M phase at 2XIC50 measured after 24 hrs by propidium iodide/RNase staining based flow cytometry. The class given is functional.
Another data set concerns HCT-116. The experiment in a line: Antiproliferative activity against human HCT-116 cells with inactivated p53 gene assessed as inhibition of cell proliferation measured after 72 hrs by MTT assay. The class given is functional, cell-based. As to conditions: HCT-116, 72 h. On the technique in general: Formazan colour is commonly taken as a measure of viable cells.
The subject of data set [10] is K562. The experiment in a line: Induction of apoptosis in human K562 cells assessed as early apoptotic cells at 1.6 uM measured after 48 hrs by Annexin V-APC/PI staining based flow cytometry assay (reference value: 3.4%). The class given is functional.
Data set [11] is described as follows: Selectivity index, ratio of IC50 for human TERT-RPE1 cells to IC50 for human HL-60 cells. The class given is toxicity. As to conditions: TERT-RPE1 cells and HL-60 cells, read-out: Ratio IC50.
A further data set concerns P388. Description: Antitumour activity against mouse P388 cells xenografted subcutaneously in BDF1 mouse assessed as inhibition of tumour growth at 60 mg/kg, ip administered qd for 5 days starting from day 1 of tumor cell inoculation and measured at day 18 post-tumor cell inoculation. As to conditions: P388, 432 h, time 18 day, read-out: TGI. The class given is functional.

Data set [12] deals with Calf thymus DNA. The experiment in a line: Binding affinity to calf thymus DNA assessed as binding constant by scatchard plot analysis. As to conditions: Bos taurus.
Data set [13] relates to K562. The experiment in a line: Induction of cell cycle arrest in human K562 cells assessed as accumulation at subG1 phase at 2XIC50 measured after 24 hrs by propidium iodide/RNase staining based flow cytometry. The class given is functional.
The nature of data set [14]: Drug uptake in mouse NIH3T3 cells assessed as compound localization in nucleus at 1 uM measured after 15 mins by laser scanning microscope. Type of data set: ADME, subcellular. As to conditions: nih3t3, 0.25 h.
The nature of data set [15]: Resistance index, ratio of IC50 for human P-gp-positive/Doxorubicin-resistant K562/4 cells to IC50 for human K562 cells. Type of data set: functional.
The nature of data set [16]: Toxicity in BDF1 mouse xenografted with mouse P388 cells assessed as lethality at 60 mg/kg, ip administered qd for 5 days. Type of data set: organism-based. As to conditions: in vivo, 120 h, dose 60 mg/kg/day, time 5 day.

For orientation: IC50 means the point on the concentration scale where inhibition reaches its midpoint. `Cc1[nH]c2c(O)c3c(c(O)c2c1C(=O)N1CC[C@H](N)C1)C(=O)c1ccccc1C3=O`: the outcome in the data set with Calf thymus DNA [1], in the data set on K562 [9] and in the data set on K562 [13] was Active. Moreover, the selectivity ratio in data set [2], in data set [7], in [8] and in data set [11] was 18 each time. The Activity in the data set with K562 [3] is recorded as 21%; in the data set with K562 [6], 34.8%; in the data set on K562 [10], 0.9%; in [16], “Non-Toxic”. Further, the Drug uptake result in [4] and in [14] was “Active” in each case. For the same molecule, the outcome with K562 [5] was inactive. For the same molecule, the IC50 in the data set on HCT-116 was found to be 0.8 µM. Moreover, in the data set on P388, the inhibition in vivo at 60 mg/kg was 79%. For the same molecule, the Kb in the data set with Calf thymus DNA [12] was 14 10^5/M. Also, the “Ratio IC50” value in data set [15] came out at 26.5.

These data come from ChEMBL document CHEMBL4765331, “Amides of pyrrole- and thiophene-fused anthraquinone derivatives: A role of the heterocyclic core in antitumor properties” (Eur J Med Chem, 2020).
